The term IC50 denotes the midpoint of a concentration-inhibition curve.

The results in this text go back to US20240140944A1, “NOVEL NAPHTHYRIDINONE DERIVATIVE HAVING INHIBITORY ACTIVITY AGAINST ECTONUCLEOTIDE PYROPHOSPHATASE-PHOSPHODIESTERASE AND USE THEREOF” (TXINNO BIOSCIENCE INC., priority 2020, published 2024).

Counter-ions that a name gives are not always drawn.

This assay has as its target T1, human recombinant ENPP1 enzymes (Homo sapiens, UniProt P22413).
T1 construct: purchased R & D systems
T1 sequence (P22413 1-925): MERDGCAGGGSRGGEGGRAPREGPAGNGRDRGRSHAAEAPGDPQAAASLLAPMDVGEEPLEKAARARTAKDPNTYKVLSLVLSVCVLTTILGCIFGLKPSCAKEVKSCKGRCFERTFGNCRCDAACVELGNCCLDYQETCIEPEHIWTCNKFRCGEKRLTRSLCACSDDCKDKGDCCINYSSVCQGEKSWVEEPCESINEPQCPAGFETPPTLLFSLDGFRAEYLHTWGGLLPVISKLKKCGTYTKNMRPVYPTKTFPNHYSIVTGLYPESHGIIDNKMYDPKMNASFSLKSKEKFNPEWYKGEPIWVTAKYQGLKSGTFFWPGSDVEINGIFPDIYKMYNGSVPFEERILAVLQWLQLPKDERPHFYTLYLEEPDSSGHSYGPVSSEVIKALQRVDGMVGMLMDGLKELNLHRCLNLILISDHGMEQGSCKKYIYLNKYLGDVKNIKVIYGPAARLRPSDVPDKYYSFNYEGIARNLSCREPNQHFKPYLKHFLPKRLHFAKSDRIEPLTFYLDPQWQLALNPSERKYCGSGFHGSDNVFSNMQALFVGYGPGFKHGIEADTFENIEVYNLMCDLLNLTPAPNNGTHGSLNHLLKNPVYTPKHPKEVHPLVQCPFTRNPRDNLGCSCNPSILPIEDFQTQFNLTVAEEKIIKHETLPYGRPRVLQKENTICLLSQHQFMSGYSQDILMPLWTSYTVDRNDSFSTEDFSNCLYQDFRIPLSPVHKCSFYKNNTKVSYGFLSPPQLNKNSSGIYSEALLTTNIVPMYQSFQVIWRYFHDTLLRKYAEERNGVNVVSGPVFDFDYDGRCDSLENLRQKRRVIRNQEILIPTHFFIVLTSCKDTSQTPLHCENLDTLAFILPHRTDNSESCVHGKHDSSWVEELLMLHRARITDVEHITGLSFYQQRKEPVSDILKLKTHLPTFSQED
The assay is described as follows: ENPP1 Enzyme Assay with cGAMP Substrate (AMP-Glo). Particulars: human recombinant ENPP1 3 ng/reaction, cGAMP 5 μM, 37° C. 90 minutes, average of two or more tests; read-out: Enzymatic activity IC50. The assay is classed as biochemical. The protocol: ENPP1 hydrolyzes nucleotides or nucleotide derivatives to produce nucleoside-5′-monophosphate and pyrophosphate. In addition, ENPP1 hydrolyzes 2′,3′-cGAMP to produce 5′-adenosine monophosphate (AMP) and 5′-guanosine monophosphate (GMP). AMP produced from the reaction is measured using the AMP-Glo® kit (Promega). The AMP-Glo® kit contains two reagents. The first reagent terminates the AMP-producing enzymatic reaction, removes ATP and converts the produced AMP into ADP. The second reagent converts ADP to ATP which is used to generate luminescence in the luciferase reaction. The amount of luminescence measured is proportional to the amount of AMP produced by ENPP1.
The final reaction mixture contains 50 mM Tris (pH 8.5) buffer, 250 mM NaCl, 0.5 mM CaCl2), 1 μM ZnCl2, 5% glycerol and 1% DMSO. Serially diluted ENPP1 inhibitors (typically in the range of 10 μM to 0.5 nM) were pre-stored with human recombinant ENPP1 enzymes (R & D systems) at 3 ng/reaction and room temperature (RT) for 5 to 10 minutes. The reaction was initiated by addition of cGAMP (at a final concentration of 5 μM) and reacted at 37° C. for 90 minutes. At the end of the reaction, 10 μl of the AMP-Glo first reagent was added to stop the reaction and the result was stored at room temperature for 1 hour. After storage, 20 μl of an AMP detection solution (a mixture of AMP-Glo II reagent and Kinase-Glo at a ratio of 1:100) was added and stored at room temperature for 1 hour. Luminescence signals were measured using a Victor® plate reader (Perkin Elmer). The maximal activity control (containing enzymes and substrates in the presence of 1% DMSO; MAX) and the minimal activity control (containing substrates and 1% DMSO; MIN) were evaluated simultaneously. In each experiment, serially diluted reference ENPP1 inhibitors were tested as well. IC50, indicating % residual activity versus compound concentration was determined by fitting inhibition curves using the 3-parameter analysis of GraphPad Prism® software. Serially diluted samples of one compound were tested two or more times and an average IC50 of each compound was calculated.
With `NS(=O)(=O)NCc1ccc(Nc2ccnc3[nH]c(=O)ccc23)c(Cl)c1` [Example 100, N-(3-chloro-4-((7-oxo-7,8-dihydro-1,8-naphthyridin-4-yl)amino)benzyl)sulfamide dihydrochloride], the half-maximal inhibitory concentration (IC50) was 1000 to 10000 nM.
As to `NS(=O)(=O)N1Cc2ccc(Nc3ccnc4[nH]c(=O)ccc34)cc2C1` [Example 101, 5-((7-oxo-7,8-dihydro-1,8-naphthyridin-4-yl)amino)isoindolin-2-yl)sulfamide dihydrochloride], the 50% inhibitory concentration (IC50) is below 1000 nM.
Consider `NS(=O)(=O)N1CCCc2ccc(Nc3ccnc4[nH]c(=O)ccc34)cc2C1` [Example 103, (8-((7-oxo-7,8-dihydro-1,8-naphthyridin-4-yl)amino)-1,3,4,5-tetrahydro-2 (1H)-benzo[c]azepin-2-yl)sulfamide dihydrochloride], for which the 50% inhibitory concentration (IC50) lay in the range of 1000 to 10000 nM.
As to `NS(=O)(=O)N1CCc2cc(Nc3ccnc4[nH]c(=O)ccc34)ccc2C1` [Example 104, dihydrochloride], the IC50 lay in the range of 1000 to 10000 nM.
For the compound `NS(=O)(=O)N1CCc2cc(Nc3ccnc4[nH]c(=O)ccc34)c(F)cc2C1` [Example 106, (7-fluoro-6-((7-oxo-7,8-dihydro-1,8-naphthyridin-4-yl)amino)-3,4-dihydroisoquinolin-2(1H)-yl) sulfamide dihydrochloride], the half-maximal inhibitory concentration (IC50) was below 1000 nM.
As to `NS(=O)(=O)NC1Cc2ccc(Nc3ccnc4[nH]c(=O)ccc34)cc2C1` (centres unmarked) [Example 107, N-(5-((7-oxo-7,8-dihydro-1,8-naphthyridin-4-yl)amino)-2,3-dihydro-1H-inden-2-yl)sulfamide dihydrochloride], the concentration for half-maximal inhibition (IC50) is below 1000 nM.
In the case of `CN(c1ccc2c(c1)CN(S(N)(=O)=O)CC2)c1ccnc2[nH]c(=O)ccc12` [Example 108, (7-(methyl(7-oxo-7,8-dihydro-1,8-naphthyridin-4-yl)amino)-3,4-dihydroisoquinolin-2(1H)-yl)sulfamide dihydrochloride], the IC50 is above 10000 nM.
As for `NC1CCN(c2ccnc3[nH]c(=O)ccc23)CC1` [Example 113, 5-(4-aminopiperidin-1-yl)-1,8-naphthyridin-2(1H)-one hydrochloride], the 50% inhibitory concentration (IC50) was below 1000 nM.
Turning to `NCC1CCN(c2ccnc3[nH]c(=O)ccc23)CC1` [Example 114, 5-(4-(aminomethyl)piperidin-1-yl)-1,8-naphthyridin-2(1H)-one hydrochloride], the 50% inhibitory concentration (IC50) is below 1000 nM.
Under `NCCC1CCN(c2ccnc3[nH]c(=O)ccc23)CC1` [Example 115, 5-(4-(2-aminoethyl)piperidin-1-yl)-1,8-naphthyridin-2(1H)-one hydrochloride] stands below 1000 nM.
With `O=c1ccc2c(N3CCC4(CCNC4)CC3)ccnc2[nH]1` [Example 117, 5-(2,8-diazaspiro[4,5]decan-8-yl)-1,8-naphthyridin-2(1H)-one hydrochloride], the IC50 was 1000 to 10000 nM.
As for `Cn1c(=O)ccc2c(N3CCC(CN)CC3)ccnc21` [Example 118, 5-(4-(aminomethyl)piperidin-1-yl)-1-methyl-1,8-naphthyridin-2(1H)-one hydrochloride], the half-inhibitory concentration (IC50) is above 10000 nM.
In the case of `NS(=O)(=O)NC1CCN(c2ccnc3[nH]c(=O)ccc23)CC1` [Example 123, N-(1-(7-oxo-7,8-dihydro-1,8-naphthyridin-4-yl)piperidin-4-yl)sulfamide], the 50% inhibitory concentration (IC50) was below 1000 nM.
Regarding `NS(=O)(=O)NCC1CCN(c2ccnc3[nH]c(=O)ccc23)CC1` [Example 124, N-((1-(7-oxo-7,8-dihydro-1,8-naphthyridin-4-yl)piperidin-4-yl)methyl)sulfamide], the half-maximal inhibitory concentration (IC50) was below 1000 nM.
Next, `NS(=O)(=O)NCCC1CCN(c2ccnc3[nH]c(=O)ccc23)CC1` [Example 125, N-(2-(1-(7-oxo-7,8-dihydro-1,8-naphthyridin-4-yl)piperidin-4-yl)ethyl)sulfamide]: below 1000 nM.
As to `NS(=O)(=O)N1CCC2(CCN(c3ccnc4[nH]c(=O)ccc34)CC2)C1` [Example 126, 8-(7-oxo-7,8-dihydro-1,8-naphthyridin-4-yl)-2,8-diazaspiro[4,5]decane-2-sulfamide], the IC50 is below 1000 nM.
For the compound `NS(=O)(=O)N1CCCN(c2ccnc3[nH]c(=O)ccc23)CC1` [Example 127], the half-maximal inhibitory concentration (IC50) lay in the range of 1000 to 10000 nM.
Consider `Cn1c(=O)ccc2c(N3CCC(CNS(N)(=O)=O)CC3)ccnc21` [Example 128, N-((1-(8-methyl-7-oxo-7,8-dihydro-1,8-naphthyridin-4-yl)piperidin-4-yl)methyl)sulfamide], for which the half-inhibitory concentration (IC50) was below 1000 nM.
Turning to `Nc1cccc(-c2ccnc3c2CCC(=O)N3)c1` [Example 131, 5-(3-(aminophenyl)-3,4-dihydro-1,8-naphthyridin-2(1H)-one hydrochloride], the IC50 fell in the range of 1000 to 10000 nM.
For `NCc1cccc(-c2ccnc3c2CCC(=O)N3)c1` [Example 132, 5-(3-(aminomethyl)phenyl)-3,4-dihydro-1,8-naphthyridin-2(1H)-one hydrochloride], the IC50 was above 10000 nM.
`NCc1ccc(-c2ccnc3c2CCC(=O)N3)cc1` [Example 133, 5-(4-(aminomethyl)phenyl)-3,4-dihydro-1,8-naphthyridin-2(1H)-one hydrochloride]: the concentration for half-maximal inhibition (IC50) was below 1000 nM.
As for `CC(C)(N)c1ccc(-c2ccnc3c2CCC(=O)N3)cc1` [Example 134, 5-(4-(2-aminopropan-2-yl)phenyl)-3,4-dihydro-1,8-naphthyridin-2(1H)-one hydrochloride], the IC50 was below 1000 nM.
On to `O=C1CCc2c(-c3ccc4c(c3)CNCC4)ccnc2N1` [Example 135, 5-(1,2,3,4-tetrahydroisoquinolin-7-yl)-3,4-dihydro-1,8-naphthyridin-2(1H)-one hydrochloride], for which the 50% inhibitory concentration (IC50) was above 10000 nM.
Under `CC(C)(C)OC(=O)NS(=O)(=O)N1CCc2ccc(-c3ccnc4c3CCC(=O)N4)cc2C1` [Example 138, tert-butyl((7-(7-oxo-5,6,7,8-tetrahydro-1,8-naphthyridin-4-yl)-3,4-diisoquinoline-2(1H)-yl)sulfonyl)carbamate] stands 1000 to 10000 nM; under `NS(=O)(=O)Nc1cccc(-c2ccnc3c2CCC(=O)N3)c1` [Example 139, N-(3-(7-oxo-5,6,7,8-tetrahydro-1,8-naphthyridin-4-yl)phenyl)sulfamide], below 1000 nM; under `NS(=O)(=O)NCc1ccc(-c2ccnc3c2CCC(=O)N3)cc1` [Example 141, N-(4-(7-oxo-5,6,7,8-tetrahydro-1,8-naphthyridin-4-yl)benzyl)sulfamide], below 1000 nM.
`NS(=O)(=O)N1CCc2ccc(Nc3ccnc4c3CCC(=O)N4)cc2C1` [Example 144, (7-(7-oxo-5,6,7,8-tetrahydro-1,8-naphthyridin-4-yl)amino)-3,4-dihydroisoquinoline-2(1H)-sulfamide hydrochloride]: the half-maximal inhibitory concentration (IC50) is below 1000 nM.
Take `CS(=O)(=O)NCc1cccc(-c2ccnc3c2CCC(=O)N3)c1` [Example 146, N-(3-(7-oxo-5,6,7,8-tetrahydro-1,8-naphthyridin-4-yl)benzyl)methanesulfonamide]: the half-inhibitory concentration (IC50) fell in the range of 1000 to 10000 nM.
As for `Cc1ccc(S(=O)(=O)NCc2cccc(-c3ccnc4c3CCC(=O)N4)c2)cc1` [Example 147, 4-methyl-N-(3-(7-oxo-5,6,7,8-tetrahydro-1,8-naphthyridin-4-yl)benzyl)benzenesulfonamide], the half-maximal inhibitory concentration (IC50) is below 1000 nM.
